Reference: patent publication US10227349B2, “Pyrazolo[1,5-a]pyrimidine compound” (Eisai R&D Management Co., Ltd., priority 2016, dated 2019)

What was measured:
PAR2 [1] = molecular target: T1, PAR2 (Homo sapiens, UniProt P55085); assay: Intracellular calcium concentration measurement (trypsin-induced calcium elevation, FDSS6000); format: cell-based; settings: HEK293 cells, trypsin 5 U/mL as agonist, test compound added 30 min before measurement; read-out: Inhibitory activity on intracellular calcium elevation (IC50 (nM))
T1 construct: Human embryonic kidney cell line HEK293 cells cultured using DMEM culture medium; endogenous in cells; host or cells: HEK293
T1 sequence (P55085 26-397): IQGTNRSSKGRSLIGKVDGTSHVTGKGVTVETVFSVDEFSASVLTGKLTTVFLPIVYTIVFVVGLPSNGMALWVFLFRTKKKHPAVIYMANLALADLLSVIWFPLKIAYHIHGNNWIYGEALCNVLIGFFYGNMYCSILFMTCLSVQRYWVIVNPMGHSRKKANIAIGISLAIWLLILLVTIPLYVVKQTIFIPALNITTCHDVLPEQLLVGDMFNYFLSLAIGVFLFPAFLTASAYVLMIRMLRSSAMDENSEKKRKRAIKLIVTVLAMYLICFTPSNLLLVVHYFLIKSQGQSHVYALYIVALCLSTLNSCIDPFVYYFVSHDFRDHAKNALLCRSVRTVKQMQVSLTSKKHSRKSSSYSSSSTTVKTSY
Text: In the present specification, examples of the measurement method for the PAR2 inhibitory activity include measurement method for a concentration elevation of intracellular calcium; measurement method for a production increase of intracellular inositol trisphosphate; measurement method for an increase in intracellular protein phosphorylation by protein kinase C and MAP kinase; and measurement method for a production amount or a release amount of inflammation-related physiologically active substances such as cytokine, chemokine, prostaglandin and nitric monoxide. Examples of the measurement method for an elevation of intracellular calcium concentration include a method wherein a calcium-binding fluorescent probe is allowed to be incorporated in advance into a cultured cell line or an animal-derived isolated cell having PAR2, or a cell in which PAR2 is artificially expressed, a protease having the PAR2 activity function such as trypsin or a PAR2 agonist (synthetic peptides such as SLIGKV-NH2 (SEQ ID NO: 1) and SLIGRL-NH2 (SEQ ID NO: 2) is added to activate PAR2 whereby fluctuating intracellular calcium concentrations are detected as changes in the fluorescent signal. Alternatively, it is also possible to measure an intracellular calcium concentration by determining the quantity of a fluorescence intensity produced in proportion to the calcium concentration using a calcium-binding luminescent protein overexpressing cell line such as Aequorin. Specifically, examples include the methods described in Test Examples of the present specification.
Human embryonic kidney cell line HEK293 cells cultured using DMEM culture medium (Invitrogen) with 3% fetal bovine serum (3% FBS)-added was prepared to have a concentration of 2×10^5 cells/mL, and plated in a type I collagen-coated 384-well black plate (clear bottom) (Greiner) so as to be 25 μL/well and cultured in a CO2 incubator overnight. FLIPR Calcium Assay Kit (Molecular Devices) prepared with Hanks-20 mM Hepes buffer (pH 7.4) was added to the cells so as to be 25 μL/well and cultured in the CO2 incubator for 1 hour. Trypsin (SIGMA-ALDRICH, catalog number: T8816, Enzyme Commission Number 3.4.21.4) prepared so as to be 5 U/mL as final concentration (BAEE unit) with Hanks-20 mM Hepes buffer (pH 7.4) was added to a 384-well deep well polypropylene plate (Greiner) to be an agonist reagent plate. Thirty minutes before the measurement using FDSS6000 (Hamamatsu Photonics K.K.), a test compound prepared with Hanks-20 mM Hepes buffer (pH 7.4) was added to the cell so as to be 8 μL/well. The cell plate to which the test compound was added and the reagent plate were set on FDSS6000, 22 μL/well of the agonist solution was added from the reagent plate, and the change in intracellular calcium concentration was measured with a CCD camera. The measurement was carried out at 37° C. for 120 seconds and the addition of reagent from the reagent plate to the cell plate was carried out using a built-in 384-well automatic dispenser of FDSS6000.
Note that Reference Example 1 in Table 3 is the compound represented by formula (XIX) synthesized in the above Reference Example 1 (hereinafter, also referred to as Compound (XIX)). Additionally, the “Comparative Compound” in Table 3 is the compound described in Patent Literature 4 represented by the following formula (XX) (I-343; hereinafter, also referred to as Compound (XX)).

PAR2 [2] = molecular target: T2, PAR2 (Mus musculus, UniProt P55086); assay: Measurement of PAR2 agonist (SLIGRL-NH2)-induced salivation in mouse; format: in vivo; settings: C57BL/6J male mice, 0.3 mg/mL solution 10 mL/kg orally, 60 min before SLIGRL-NH2 i.p., saliva collected 10 min
T2 construct: orally administered to C57BL/6J male mice (Charles River), 6-10 weeks of age; tissue Charles River; host or cells: Living C57BL/6J male mice (in vivo; saliva secretion)
T2 sequence (P55086 26-399): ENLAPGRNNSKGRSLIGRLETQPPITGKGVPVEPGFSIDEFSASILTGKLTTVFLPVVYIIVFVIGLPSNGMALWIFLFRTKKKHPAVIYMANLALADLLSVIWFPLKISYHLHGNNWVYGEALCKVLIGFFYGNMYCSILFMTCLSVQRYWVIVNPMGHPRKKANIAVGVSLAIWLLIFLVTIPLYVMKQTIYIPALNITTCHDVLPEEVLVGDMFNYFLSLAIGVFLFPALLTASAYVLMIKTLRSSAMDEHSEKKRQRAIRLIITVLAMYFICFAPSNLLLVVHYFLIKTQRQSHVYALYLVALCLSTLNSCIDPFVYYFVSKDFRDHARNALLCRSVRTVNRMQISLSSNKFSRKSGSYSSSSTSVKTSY
Description: The test compound was added to a 0.5% carboxymethyl cellulose solution to which 2% DMSO was added, so as to have the final concentration of 0.3 mg/mL, thereby preparing an administration solution containing the test compound. The administration solution containing the test compound (10 mL/kg) was orally administered to C57BL/6J male mice (Charles River), 6-10 weeks of age, using an oral sonde and a syringe. Forty-five minutes after the administration of the test compound, 10 mL/kg of a 20% (w/v) urethane solution was intraperitoneal administered to the mice which were then anesthetized. Sixty minutes after the administration of the test compound, 10 mL/kg of a 0.1 mg/mL SLIGRL-NH2 (SEQ ID NO: 2) solution was intraperitoneally administered as the PAR2 agonist and a cotton ball was immediately placed in the oral cavity of the mouse to collect the saliva. Ten minutes after the administration of the PAR2 agonist, the cotton ball was removed and weighed to measure the amount of saliva secreted.
Note that Reference Example 1 in Table 4 is Compound (XIX). Additionally, Comparative Compound in Table 4 is Compound (XX).

[3] = test system: OXA-induced enteritis in BALB/c male mice; assay: Model mouse for enteritis (OXA-induced, bowel length); format: in vivo; settings: po, 48 h, 0.1 mg/mL solution 10 mL/kg orally twice (1 hour before and day after OXA induction), length of colon and rectum two days after induction, read-out: Inhibitory activity on bowel shortening (%)
Description: Generally, the bowel length is known to be shorter during enteritis (Maxwell, J. R. et al. Curr. Protoc. Pharmacol. Chapter 5: Unit 5.58, 2009). The bowel length in an enteritis model was measured to evaluate the effect of the test compound.
The test compound was added to a 0.5% carboxymethyl cellulose solution so as to have a final concentration of 0.1 mg/mL, thereby preparing an administration solution containing the test compound. Hapten used was 4-ethoxymethylene-2-phenyloxazol-5-one (OXA, SIGMA-ALDRICH).
One hundred (100) μL of a solution of OXA diluted to 0.3% with ethanol was applied to the shaved abdominal region of BALB/c male mice (Charles River), 6-10 weeks of age, to create the sensitization. Five days after the sensitization, OXA was intrarectally administered to induce an enteritis reaction. More specifically, a syringe equipped with a sonde for oral administration was inserted into the anus of the mouse anesthetized by the inhalation of isoflurane at a concentration of 4-5% and 50 μL of the OXA solution adjusted to 1% with a solvent of 50% ethanol/50% distilled water was administered into the rectum.
One hour before and on the day following the induction of enteritis, the administration solution containing the test compound (10 mL/kg) was orally administered twice in total to the mice. Two days after the induction of enteritis, the mice were euthanized by cervical dislocation and subsequently the cecum to the anus was collected to measure the combined length of the colon and the rectum using a ruler, thereby evaluating the action of the test compound.
Note that Reference Example 1 in Table 6 is Compound (XIX).

[4] = test system: DNFB-induced dermatitis in BALB/c male mice; assay: Mouse dermatitis model (DNFB-induced auricle swelling); format: in vivo; settings: 0.3 mg/mL solution 10 mL/kg orally 8 hours after DNFB induction, auricle thickness on following day
Description: The test compound was added to a 0.5% carboxymethyl cellulose solution so as to have the final concentration of 0.3 mg/mL, thereby preparing an administration solution containing the test compound. Hapten used was 2,4-dinitrofluorobenzene (DNFB, Wako Pure Chemical Industries).
Twenty-five (25) μL of a solution of DNFB diluted to 0.4% with a mixed solvent of acetone and an olive oil in a volume ratio of 2:1 was applied twice to the shaved abdominal region of BALB/c male mice (Charles River), 6-10 weeks of age, over a period of 2 days to create the sensitization. Four days after the sensitization, on the first day, 20 μL of a solution of DNFB diluted to 0.2% with a mixed solvent of acetone and an olive oil in a volume ratio of 2:1 was applied to the right auricle of the mouse to induce dermatitis. Eight hours after the induction of dermatitis, the administration solution containing the test compound (10 mL/kg) was orally administered to the mouse. On the day following the induction of dermatitis, the right auricle thickness of the mouse was measured using a thickness gauge to evaluate the action of the test compound.
Note that Reference Example 1 in Table 5 is Compound (XIX).

Row | Structure (SMILES) | IC50 (PAR2 [1]) | Inhibitory activity on the PAR2-dependent saliva secretion (%) (PAR2 [2]) | inhibition in vivo at 100 µg/mL, 1 mg/kg [3] | Inhibitory activity on auricle swelling (%) [4]
1 | CO[C@H]1CN(C(=O)c2cc3nc(-c4cc(F)c(F)c(F)c4)cc(N(C)c4c(C)cccc4C)n3n2)CC[C@H]1CC(=O)O (relative stereo) [Example 2, 2-((3R*,4S*)-1-(7-((2,6-dimethylphenyl)(methyl)amino)-5-(3,4,5-trifluorophenyl)pyrazolo[1,5-a]pyrimidine-2-carbonyl)-3-methoxypiperidin-4-yl)acetic acid] | 7.54 nM | 91.3% | 69.7% | 
2 | CN(c1c(F)cccc1Cl)c1cc(-c2cc(F)c(F)c(F)c2)nc2cc(C(=O)N3CC[C@@H](CC(=O)O)[C@@H](F)C3)nn12 (relative stereo) [Example 13, 2-((3R*,4S*)-1-(7-((2-chloro-6-fluorophenyl)(methyl)amino)-5-(3,4,5-trifluorophenyl)pyrazolo[1,5-a]pyrimidine-2-carbonyl)-3-fluoropiperidin-4-yl)acetic acid] | 4 nM | 95.0% | 62.2% | 
3 | CCCN(c1cc(-c2cc(F)c(Cl)c(F)c2)nc2cc(C(=O)N3C[C@@H]4[C@@H](CC(=O)O)[C@@H]4C3)nn12)C(C)C [Example 15, 2-((1α,5α,6α)-3-(5-(4-chloro-3,5-difluorophenyl)-7-(isopropyl(propyl)amino)pyrazolo[1,5-a]pyrimidine-2-carbonyl)-3-azabicyclo[3.1.0]hexan-6-yl)acetic acid] | 12.8 nM |  |  | 17.4%
4 | CC(C)CN(c1cc(-c2cc(F)c(F)c(F)c2)nc2cc(C(=O)N3C[C@@H]4[C@@H](CC(=O)O)[C@@H]4C3)nn12)[C@@H](C)c1ccccc1 [Example 16, 2-((1α,5α,6α)-3-(7-(isobutyl((S)-1-phenylethyl)amino)-5-(3,4,5-trifluorophenyl)pyrazolo[1,5-a]pyrimidine-2-carbonyl)-3-azabicyclo[3.1.0]hexan-6-yl)acetic acid] | 26.3 nM | 98.2% | 74.5% | 

These reach a lower IC50 (PAR2 [1]). Values come first.

Row | IC50 (PAR2 [1]) | Inhibitory activity on the PAR2-dependent saliva secretion (%) (PAR2 [2]) | Structure (SMILES) | inhibition in vivo at 100 µg/mL, 1 mg/kg [3] | Inhibitory activity on auricle swelling (%) [4]
5 | 2.79 nM | 97.0% | COc1cccc(C)c1N(C)c1cc(-c2cc(F)c(F)c(F)c2)nc2cc(C(=O)N3CC[C@@H](CC(=O)O)[C@@H](OC)C3)nn12 (relative stereo) [Example 6, 2-((3R*,4S*)-3-methoxy-1-(7-((2-methoxy-6-methylphenyl)(methyl)amino)-5-(3,4,5-trifluorophenyl)pyrazolo[1,5-a]pyrimidine-2-carbonyl)piperidin-4-yl)acetic acid] | 79.6% | 
6 | 2.45 nM | 94.5% | COc1cccc(C)c1N(C)c1cc(-c2cc(F)c(F)c(F)c2)nc2cc(C(=O)N3CC[C@@H](CC(=O)O)[C@@H](F)C3)nn12 (relative stereo) [Example 5, 2-((3R*,4S*)-3-fluoro-1-(7-((2-methoxy-6-methylphenyl)(methyl)amino)-5-(3,4,5-trifluorophenyl)pyrazolo[1,5-a]pyrimidine-2-carbonyl)piperidin-4-yl)acetic acid] | 106% | 
7 | 1.74 nM | 96.0% | COc1cccc(F)c1N(C)c1cc(-c2cc(F)c(F)c(F)c2)nc2cc(C(=O)N(C)[C@H](C)CC(=O)O)nn12 [Example 7, (R)-3-(7-((2-fluoro-6-methoxyphenyl)(methyl)amino)-N-methyl-5-(3,4,5-trifluorophenyl)pyrazolo[1,5-a]pyrimidine-2-carboxamide)butanoic acid] |  | 61.6%
